Reference: patent publication US7301022B2, “Vanilloid receptor ligands and their use in treatments” (Amgen Inc., priority 2005, dated 2007)
Where a name gives a salt, the structure may show the parent alone.

Compound | melting point
CC(C)CN1CCCCC1C(=O)Nc1cc(C(F)(F)F)ccc1-c1cc(Oc2cccc3ccc(N)nc23)ncn1 (stereo not drawn) | 111.1 to 113.9 °C
CC1(C)CC(Nc2nc(C(F)(F)F)ccc2-c2cc(Oc3cccc4sc(N)nc34)ncn2)CC(C)(C)N1 (as salt: trifluoroacetic acid salt) [Example 35, 4-(6-(2-(2,2,6,6-Tetramethylpiperidin-4-ylamino)-6-(trifluoromethyl)pyridin-3-yl)pyrimidin-4-yloxy)benzo[d]thiazol-2-amine trifluoroacetic acid salt] | 264 to 265.1 °C
CC(=O)Nc1nc2c(Oc3cc(-c4ccc(C(F)(F)F)nc4NC4CC(C)(C)NC(C)(C)C4)ncn3)cccc2s1 (as salt: trifluoroacetic acid salt) [Example 36, N-(4-(6-(2-(2,2,6,6-Tetramethylpiperidin-4-ylamino)-6-(trifluoromethyl)-pyridin-3-yl)pyrimidin-4-yloxy)benzo[d]thiazol-2-yl)acetamide trifluoroacetic acid salt] | 253.4 to 254.1 °C
CC(=O)Nc1nc2c(Oc3cc(-c4ccc(C(F)(F)F)cc4NC(=O)C4(C)CCCCN4CC(C)C)ncn3)cccc2s1 (stereo not drawn) (as salt: trifluoroacetic acid salt) [Example 44, N-(2-(6-(2-Acetamidobenzo[d]thiazol-4-yloxy)pyrimidin-4-yl)-5-(trifluoromethyl)phenyl)-1-isobutyl-2-methylpiperidine-2-carboxamide trifluoroacetic acid salt] | < 80 °C
CC1CC[C@@H](C(=O)Nc2cc(C(F)(F)F)ccc2-c2cc(Oc3cccc4ccc(N)nc34)ncn2)N1 (mixture of isomers) [Example 48, (2S,5R,S)-N-(2-(6-(2-Aminoquinolin-8-yloxy)pyrimidin-4-yl)-5-(trifluoromethyl)phenyl)-5-methylpyrrolidine-2-carboxamide] | 162.9 to 164 °C
CC(=O)Nc1nc2c(Oc3cc(-c4ccc(C(F)(F)F)nc4NCC4CCCCN4CC(C)C)ncn3)cccc2s1 (racemic) [Example 31, N-(4-(6-(2-(((R,S)-1-isobutylpiperidin-2-yl)methylamino)-6-(trifluoromethyl)pyridin-3-yl)pyrimidin-4-yloxy)benzo[d]thiazol-2-yl)acetamide] | 121.7 to 121.9 °C
CC(=O)Nc1nc2c(Oc3cc(-c4ccc(C(F)(F)F)nc4NC4CCN(CC(C)C)C4)ncn3)cccc2s1 (stereo not drawn) [Example 3, N-(4-(6-(2-(1-Isobutylpyrrolidin-3-ylamino)-6-(trifluoromethyl)pyridin-3-yl)pyrimidin-4-yloxy)benzo[d]thiazol-2-yl)acetamide] | 138 to 139 °C
CC(=O)Nc1nc2c(Oc3cc(-c4ccc(C(F)(F)F)nc4NC4CCN(C(C)C)C4)ncn3)cccc2s1 (stereo not drawn) [Example 4, N-(4-(6-(2-(1-Isopropylpyrrolidin-3-ylamino)-6-(trifluoromethyl)pyridin-3-yl)pyrimidin-4-yloxy)benzo[d]thiazol-2-yl)acetamide] | 140 to 141 °C
CC(C)CN1CCCCC1C(C)(C)Nc1nc(C(F)(F)F)ccc1-c1cc(Oc2cccc3sc(N)nc23)ncn1 (stereo not drawn) [Example 5, 4-(6-(2-(2-(1-Isobutylpiperidin-2-yl)propan-2-ylamino)-6-(trifluoromethyl)pyridin-3-yl)pyrimidin-4-yloxy)benzo[d]thiazol-2-amine] | 166 to 170 °C
CC(C)CN1CCCCC1CNc1nc(C(F)(F)F)ccc1-c1cc(Oc2cccc3[nH]c(=O)c(N)nc23)ncn1 (stereo not drawn) [Example 6] | 228 to 229 °C
CC(C)CN1CCCCC1CN(C)c1nc(C(F)(F)F)ccc1-c1cc(Oc2cccc3sc(N)nc23)ncn1 (stereo not drawn) [Example 24, 4-(6-(2-(((1-Isobutylpiperidin-2-yl)methyl)(methyl)amino)-6-(trifluoromethyl)pyridin-3-yl)pyrimidin-4-yloxy)benzo[d]thiazol-2-amine] | 98.9 to 101.9 °C
CC(C)CN1CCC[C@H]1CNc1nc(C(F)(F)F)ccc1-c1cc(Oc2cccc3sc(N)nc23)ncn1 [Example 25] | 198 °C (dec.)
CC(C)CN1CCCCC1CNc1nc(C(F)(F)F)ccc1-c1cc(Oc2cccc3sc(N)nc23)ncn1 (stereo not drawn) [Example 26] | 118 to 118.2 °C
CC(C)N1CCCCC1CNc1nc(C(F)(F)F)ccc1-c1cc(Oc2cccc3sc(N)nc23)ncn1 (stereo not drawn) [Example 27] | 211.3 to 213 °C
CC(C)CN1CCC[C@H]1CN(C)c1nc(C(F)(F)F)ccc1-c1cc(Oc2cccc3sc(N)nc23)ncn1 [Example 28] | 93.2 to 96.8 °C
CC(=O)Nc1nc2c(Oc3cc(-c4ccc(C(F)(F)F)nc4N(C)CC4CCCCN4CC(C)C)ncn3)cccc2s1 (stereo not drawn) [Example 29, N-(4-(6-(2-(((1-isobutylpiperidin-2-yl)methyl)(methyl)amino)-6-(trifluoromethyl)pyridin-3-yl)pyrimidin-4-yloxy)benzo[d]thiazol-2-yl)acetamide] | 123.2 to 125.4 °C
CC(=O)Nc1nc2c(Oc3cc(-c4ccc(C(F)(F)F)nc4NC[C@@H]4CCCN4CC(C)C)ncn3)cccc2s1 [Example 30] | 105.8 to 107.3 °C
CC(=O)Nc1nc2c(Oc3cc(-c4ccc(C(F)(F)F)nc4NCC4CCCCN4C(C)C)ncn3)cccc2s1 (stereo not drawn) [Example 32] | 159.3 to 162 °C
CC(=O)Nc1nc2c(Oc3cc(-c4ccc(C(F)(F)F)cc4NC(=O)[C@@H]4CCN4C(C)C)ncn3)cccc2s1 [Example 37, (2S)-N-(2-(6-(2-Acetamidobenzo[d]thiazol-4-yloxy)pyrimidin-4-yl)-5-(trifluoromethyl)phenyl)-1-isopropylazetidine-2-carboxamide] | 198.8 to 199.4 °C
CC(=O)Nc1nc2c(Oc3cc(-c4ccc(C(F)(F)F)cc4NC(=O)[C@@H]4CCN4CC(C)C)ncn3)cccc2s1 [Example 38, (2S)-N-(2-(6-(2-Acetamidobenzo[d]thiazol-4-yloxy)pyrimidin-4-yl)-5-(trifluoromethyl)phenyl)-1-isobutylazetidine-2-carboxamide] | 174.4 to 174.9 °C
CC(C)CN1CCCCC1C(=O)Nc1cc(C(F)(F)F)ccc1-c1cc(Oc2cccc3[nH]c(=O)c(N)nc23)ncn1 (stereo not drawn) [Example 42, N-(2-(6-(3-Amino-2-oxo-1,2-dihydroquinoxalin-5-yloxy)pyrimidin-4-yl)-5-(trifluoromethyl)phenyl)-1-isobutylpiperidine-2-carboxamide] | > 250 °C
CC(=O)Nc1nc2c(Oc3cc(-c4ccc(C(F)(F)F)cc4NC(=O)C4(C)CCCCN4)ncn3)cccc2s1 (stereo not drawn) [Example 43, N-(2-(6-(2-Acetamidobenzo[d]thiazol-4-yloxy)pyrimidin-4-yl)-5-(trifluoromethyl)phenyl)-2-methylpiperidine-2-carboxamide] | 146.4 to 148.8 °C
CC(=O)Nc1nc2c(Oc3cc(-c4ccc(C(F)(F)F)cc4NC(=O)C4CCCCN4CC4CC4)ncn3)cccc2s1 (stereo not drawn) [Example 49, N-(2-(6-(2-Acetamidobenzo[d]thiazol-4-yloxy)pyrimidin-4-yl)-5-(trifluoromethyl)phenyl)-1-(cyclopropylmethyl)piperidine-2-carboxamide] | 212.3 to 213.5 °C
CC(=O)Nc1nc2c(Oc3cc(-c4ccc(C(F)(F)F)cc4NC(=O)C4CCCCN4C(C)C)ncn3)cccc2s1 (stereo not drawn) [Example 50, N-(2-(6-(2-Acetamidobenzo[d]thiazol-4-yloxy)pyrimidin-4-yl)-5-(trifluoromethyl)phenyl)-1-isopropylpiperidine-2-carboxamide] | 260 °C (dec.)
CC(=O)Nc1nc2c(Oc3cc(-c4ccc(C(F)(F)F)cc4NC(=O)C4CCCCN4CC(C)C)ncn3)cccc2s1 (stereo not drawn) [Example 51, N-(2-(6-(2-Acetamidobenzo[d]thiazol-4-yloxy)pyrimidin-4-yl)-5-(trifluoromethyl)phenyl)-1-isobutylpiperidine-2-carboxamide] | 153.4 to 154.9 °C
CC(=O)Nc1nc2c(Oc3cc(-c4ccc(C(F)(F)F)cc4NCc4cncn4Cc4ccccc4)ncn3)cccc2s1 [Example 54, N-(4-(6-(2-((1-Benzyl-1H-imidazol-5-yl)methylamino)-4-(trifluoromethyl)-phenyl)pyrimidin-4-yloxy)benzo[d]thiazol-2-yl)acetamide] | 264 to 264.1 °C
CC(=O)Nc1nc2c(Oc3cc(-c4ccc(C(F)(F)F)cc4NCc4cncn4C)ncn3)cccc2s1 [Example 55, N-(4-(6-(2-((1-Methyl-1H-imidazol-5-yl)methylamino)-4-(trifluoromethyl)-phenyl)pyrimidin-4-yloxy)benzo[d]thiazol-2-yl)acetamide] | 263 to 265.2 °C
